Laboratory results from ChEMBL document CHEMBL1153520, “A multivalent approach to the design and discovery of orally efficacious 5-HT4 receptor agonists” (J Med Chem, 2009).

Assays:
[1] = molecular target: T1, 5-hydroxytryptamine receptor 4 (Homo sapiens, UniProt Q13639); assay: Displacement of [H]GR-113808 from human 5HT4C receptor expressed in HEK293 cells by liquid scintillation counting; assay type: cell-based
[2] = species on record: Homo sapiens; assay: Selectivity ratio of Ki for human 5HT3A receptor to Ki for human 5HT4C receptor
[3] = molecular target: T1, 5-hydroxytryptamine receptor 4; assay: Agonist activity at human 5HT4C receptor expressed in HEK293 cells assessed as accumulation of cAMP by flash plate adenylyl cyclase activation assay; assay type: functional, cell-based
[4] = molecular target: T1, 5-hydroxytryptamine receptor 4; assay: Intrinsic activity at human 5HT4C receptor expressed in HEK293 cells assessed as accumulation of cAMP by flash plate adenylyl cyclase activation assay relative to serotonin; assay type: functional, cell-based
[5] = molecular target: hERG (KCNH2) (Homo sapiens, UniProt Q12809); assay: Inhibition of human ERG potassium channel expressed in CHO-K1 cells at 3 uM by whole cell voltage clamp assay; assay type: cell-based; conditions: CHO-K1 cells expressing human ERG potassium channel
[6] = Permeability across human Caco-2 cells assessed as permeability coefficient; assay type: ADME, cell-based; conditions: read-out: permeability
[7] = AUC (0 to t) in Sprague-Dawley rat at 5 mg/kg, po; assay type: ADME, organism-based; design: dose 5 mg/kg, route oral; conditions: plasma
[8] = Cmax in Sprague-Dawley rat at 5 mg/kg, po; assay type: ADME, organism-based; design: dose 5 mg/kg, route oral; conditions: in vivo
[9] = Half life in Sprague-Dawley rat at 5 mg/kg, po; assay type: ADME, organism-based; design: dose 5 mg/kg, route oral; conditions: in vivo
[10] = Oral bioavailability in Sprague-Dawley rat at 5 mg/kg, po; assay type: ADME, organism-based; conditions: in vivo
[11] = in vitro; conditions: rat, liver microsomes
[12] = system: Rattus norvegicus; assay: Induction of 5HT4 receptor-mediated relaxation of esophagus in iv dosed anesthetized Sprague-Dawley rat by digital sonomicrometry; assay type: functional
[13] = Oral bioavailability in human; assay type: ADME, organism-based; conditions: in vivo

Sequence of hERG (KCNH2) (Q12809 whole entry): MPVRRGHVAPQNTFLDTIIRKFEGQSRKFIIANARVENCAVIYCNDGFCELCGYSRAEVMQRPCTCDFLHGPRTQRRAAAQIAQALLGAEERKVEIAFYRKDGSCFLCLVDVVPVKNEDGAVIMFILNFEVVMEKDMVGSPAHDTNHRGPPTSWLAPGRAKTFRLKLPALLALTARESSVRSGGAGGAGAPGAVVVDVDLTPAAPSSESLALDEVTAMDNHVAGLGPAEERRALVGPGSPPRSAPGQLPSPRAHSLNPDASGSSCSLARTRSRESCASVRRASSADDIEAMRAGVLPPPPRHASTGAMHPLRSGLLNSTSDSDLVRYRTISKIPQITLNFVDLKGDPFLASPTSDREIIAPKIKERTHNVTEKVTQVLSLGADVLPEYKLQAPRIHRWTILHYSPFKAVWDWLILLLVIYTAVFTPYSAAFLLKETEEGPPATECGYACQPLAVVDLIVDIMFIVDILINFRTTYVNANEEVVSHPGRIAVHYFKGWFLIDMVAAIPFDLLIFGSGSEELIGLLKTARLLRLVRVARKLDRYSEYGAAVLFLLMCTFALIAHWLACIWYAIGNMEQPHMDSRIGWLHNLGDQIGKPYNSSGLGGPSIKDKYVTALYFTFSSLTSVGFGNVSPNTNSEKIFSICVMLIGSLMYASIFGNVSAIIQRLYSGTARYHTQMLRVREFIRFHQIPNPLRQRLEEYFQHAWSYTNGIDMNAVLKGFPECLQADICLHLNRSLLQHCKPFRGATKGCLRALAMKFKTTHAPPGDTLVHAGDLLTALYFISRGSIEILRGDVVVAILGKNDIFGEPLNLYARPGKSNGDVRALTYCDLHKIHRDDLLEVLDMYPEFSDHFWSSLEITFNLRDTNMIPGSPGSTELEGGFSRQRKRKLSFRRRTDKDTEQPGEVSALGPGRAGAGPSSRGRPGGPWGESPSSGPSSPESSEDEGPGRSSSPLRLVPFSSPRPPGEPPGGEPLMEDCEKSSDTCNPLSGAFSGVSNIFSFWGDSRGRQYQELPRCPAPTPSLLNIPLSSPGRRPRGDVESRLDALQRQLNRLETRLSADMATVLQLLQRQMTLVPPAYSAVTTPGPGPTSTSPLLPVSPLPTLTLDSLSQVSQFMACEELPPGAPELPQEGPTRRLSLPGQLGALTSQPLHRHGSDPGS
T1 sequence (Q13639 whole entry): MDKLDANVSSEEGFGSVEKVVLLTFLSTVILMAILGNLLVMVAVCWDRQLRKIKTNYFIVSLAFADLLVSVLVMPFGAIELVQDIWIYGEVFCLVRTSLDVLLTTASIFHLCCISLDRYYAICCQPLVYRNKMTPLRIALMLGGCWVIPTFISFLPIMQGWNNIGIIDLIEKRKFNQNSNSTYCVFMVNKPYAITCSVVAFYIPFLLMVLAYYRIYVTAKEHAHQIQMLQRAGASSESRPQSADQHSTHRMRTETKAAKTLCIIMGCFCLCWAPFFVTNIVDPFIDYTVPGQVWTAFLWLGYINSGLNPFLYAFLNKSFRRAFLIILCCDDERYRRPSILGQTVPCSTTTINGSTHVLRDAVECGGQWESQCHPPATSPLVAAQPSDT

Compound	Ki [1]	Ratio Ki [2]	EC50 [3]	Intrinsic activity [4]	inhibition at 3 µM [5]	Papp [6]	AUC(0-t) [7]	Cmax [8]	half-life [9]	bioavailability [10]	half-life [11]	ED50 [12]	bioavailability [13]
CC(C)n1c(=O)c(C(=O)N[C@H]2C[C@H]3CC[C@@H](C2)N3CCCN2CCCCC2)cc2ccccc21	6.31 nM	9200	2 nM	> 100%	39%	24 ×10⁻⁶ cm/s							
CC(C)n1c(=O)c(C(=O)N[C@H]2C[C@H]3CC[C@@H](C2)N3CCCCCCCN2CCC[C@@H]2C(N)=O)cc2ccccc21	2 nM	20000	0.398 nM	> 100%	7%	9 ×10⁻⁶ cm/s							
CC(C)n1c(=O)c(C(=O)N[C@H]2C[C@H]3CC[C@@H](C2)N3CCCN2CCOCC2)cc2ccccc21	39.8 nM	750	2.51 nM	> 100%	80%	22 ×10⁻⁶ cm/s							
CC(C)n1c(=O)c(C(=O)N[C@H]2C[C@H]3CC[C@@H](C2)N3CCCCCCCN2CCN(S(C)(=O)=O)CC2)cc2ccccc21	10 nM	2600	2.51 nM	> 100%	46%	22 ×10⁻⁶ cm/s	83 ng·h/mL	10 ng/mL	20.3 h	20%	> 1.5 h		
COc1cc(N)c(Cl)cc1C(=O)NC1CCN(CCCOc2ccc(F)cc2)CC1OC (centres undefined) [CISAPRIDE]												0.142 mg/kg	
CC(C)n1c(=O)c(C(=O)N[C@H]2C[C@H]3CC[C@@H](C2)N3CCCCCCCN(C)CCCN(C)S(C)(=O)=O)cc2ccccc21	5.01 nM	6500	0.631 nM	96%	12%	3 ×10⁻⁶ cm/s							
CC(C)n1c(=O)c(C(=O)N[C@H]2C[C@H]3CC[C@@H](C2)N3CCCN2CCC[C@@H]2C(N)=O)cc2ccccc21	50.1 nM	1500	3.98 nM	> 100%	12%	2 ×10⁻⁶ cm/s							
CC(C)n1c(=O)c(C(=O)N[C@H]2C[C@H]3CC[C@@H](C2)N3C[C@H](O)CN2CCN(S(C)(=O)=O)CC2)cc2ccccc21	50.1 nM	1300	1.26 nM	> 100%	6%	20 ×10⁻⁶ cm/s							
CC(C)n1c(=O)c(C(=O)N[C@H]2C[C@H]3CC[C@@H](C2)N3CCCN(C)CCCN(C)S(C)(=O)=O)cc2ccccc21	200 nM	210	10 nM	> 100%	6%	4 ×10⁻⁶ cm/s							
CC(C)n1c(=O)c(C(=O)N[C@H]2C[C@H]3CC[C@@H](C2)N3CCCCCCCN2CCN(c3ccccc3)CC2)cc2ccccc21	3.98 nM	5300	7.94 nM	> 100%	97%	20 ×10⁻⁶ cm/s							
CC(C)n1c(=O)c(C(=O)N[C@H]2C[C@H]3CC[C@@H](C2)N3CCCCCCCN2CCOCC2)cc2ccccc21	2 nM	1600	2.51 nM	> 100%	34%	28 ×10⁻⁶ cm/s							
CC(C)n1c(=O)c(C(=O)N[C@H]2C[C@H]3CC[C@@H](C2)N3CCCCCCCN2CCCCC2)cc2ccccc21	2.51 nM	10000	0.794 nM	90%	9%	23 ×10⁻⁶ cm/s							
CC(C)n1c(=O)c(C(=O)N[C@H]2C[C@H]3CC[C@@H](C2)N3CCCCCCCN2CCC(CNS(C)(=O)=O)CC2)cc2ccccc21	2.51 nM	3100	0.631 nM	98%	5%	2 ×10⁻⁶ cm/s							
CC(C)n1c(=O)c(C(=O)N[C@H]2C[C@H]3CC[C@@H](C2)N3CCCN2CCN(S(C)(=O)=O)CC2)cc2ccccc21	39.8 nM	2300	1.58 nM	> 100%	38%	20 ×10⁻⁶ cm/s	183 ng·h/mL	34 ng/mL	7.9 h	38%	0.683 h		
CCOC(=O)N1CCN(CCCN2[C@@H]3CC[C@H]2C[C@@H](NC(=O)c2cc4ccccc4n(C(C)C)c2=O)C3)CC1	39.8 nM	1300	2.51 nM	> 100%	75%	31 ×10⁻⁶ cm/s							
CCCCCNC(=N)N/N=C/c1c[nH]c2ccc(OC)cc12 [TEGASEROD]						11 ×10⁻⁶ cm/s	21 ng·h/mL	6 ng/mL	1.8 h	5%	> 1.5 h	0.0106 mg/kg	10%
CC(C)n1c(=O)c(C(=O)N[C@H]2C[C@H]3CC[C@@H](C2)N3CCCN2CCN(c3ccccc3)CC2)cc2ccccc21	7.94 nM	1000	0.794 nM	> 100%	90%	22 ×10⁻⁶ cm/s							
CC(C)n1c(=O)c(C(=O)N[C@H]2C[C@H]3CC[C@@H](C2)N3CCCN2CCC(CNS(C)(=O)=O)CC2)cc2ccccc21	5.01 nM	11000	1 nM	> 100%	14%	3 ×10⁻⁶ cm/s							
CCOC(=O)N1CCN(CCCCCCCN2[C@@H]3CC[C@H]2C[C@@H](NC(=O)c2cc4ccccc4n(C(C)C)c2=O)C3)CC1	7.94 nM	810	3.16 nM	> 100%	87%	14 ×10⁻⁶ cm/s							
COc1cc(N)c(Cl)cc1C(=O)NC1CCN(CCCCCCCCS(=O)(=O)O)CC1	15800 nM	4.3	1000 nM	> 100%									
CCN1[C@@H]2CC[C@H]1C[C@@H](NC(=O)c1cc3ccccc3n(C(C)C)c1=O)C2	126 nM	19	31.6 nM	96%									
CC(C)n1c(=O)c(C(=O)N[C@H]2C[C@H]3CC[C@@H](C2)N3CCCCCCCCS(=O)(=O)O)cc2ccccc21	63.1 nM	230	20 nM	> 100%									
CCCCCN1[C@@H]2CC[C@H]1C[C@@H](NC(=O)c1cc3ccccc3n(C(C)C)c1=O)C2	63.1 nM	890	39.8 nM	> 100%									
COc1cc(N)c(Cl)cc1C(=O)NC1CCN(CCN2C(=O)c3ccccc3C2=O)CC1	7940 nM	13	631 nM	94%									
CC(C)n1c(=O)c(C(=O)N[C@H]2C[C@H]3CC[C@@H](C2)N3CCCCCCCCO)cc2ccccc21	50.1 nM	1100	15.8 nM	> 100%									
COc1cc(N)c(Cl)cc1C(=O)NCC1CCNCC1	316 nM	0.12	398 nM	81%									
CC(C)n1c(=O)c(C(=O)N[C@H]2C[C@H]3CC[C@@H](C2)N3CC(O)CN2CCN(S(C)(=O)=O)CC2)cc2ccccc21 (mixture of isomers)	20 nM	2400	0.794 nM	> 100%	10%	19 ×10⁻⁶ cm/s							
CC(C)n1c(=O)n(C(=O)NC2CCNCC2)c2ccccc21	1580 nM	0.019	316 nM	> 100%									
